{"source": "patent US12076400B2", "about": "“Methods of using a bispecific antigen-binding construct targeting HER2 in combination with CDK4/6 inhibitors for the treatment of breast cancer” (c/o Zymeworks BC Inc., priority 2019, dated 2024)", "origin": "cited, not measured here", "tested_on": "estrogen receptor (ER)-positive breast cancer cell lines", "details": "by blocking progression from G1 into S phase"}
{"molecule": "CC(=O)c1c(C)c2cnc(Nc3ccc(N4CCNCC4)cn3)nc2n(C2CCCC2)c1=O", "note": "[palbociclib, Palbociclib]", "values": [{"measurement": "Cellular proliferation in vitro", "value": "reduced cellular proliferation"}]}
